# Test results as given in US8076346B2 (priority 2000, dated 2011).
# Experiments:
# Format in all cases: in vivo
# [1] = Pharmacokinetics of DPB after oral DPB or NaDPB and IV NaDPB in Sprague-Dawley rats; settings: for AUC(0-t): Sprague-Dawley, 150 mg/kg; for AUC(0-t) / Cmax / Tmax / half-life / bioavailability: rat, in vivo; for bioavailability: read-out: F (absolute bioavailability)
# Method: (§1) In accordance with the present invention, pharmacokinetic parameters were calculated using standard non-compartmental methods, as implemented in WinNonlin™ 4.0.1. […] The mean, SD and CV (%) were used to calculate the AUC0-t (μg·h/mL), C. (μg/ml) (the maximum observed concentration), Tmax (hours) (the time to reach that peak concentration) and Kel (the elimination rate constant) for each animal and each analyte.
# (§2) AUC0-t was calculated using the linear trapezoidal rule, which employs an approximate integration formula. The area of each trapezoid was calculated, and the sum of all the areas of all the trapezoids yielded an estimate of the true area under the curve. (See, Gibaldi et al. Pharmacokinetics. 2nd Ed. Marcel Dekker, Inc., 1982; Yeh et al., A comparison of numerical integrating algorithms by trapezoidal, lagrange, and spline approximations. J. Pharmacokinet Biopharm. 6: 79 (1978), the disclosure of which is herein incorporated by reference.) Cmax and Tmax were then determined for each concentration vs. time profile. Elimination rate constant (Kel) was calculated using regression analyses on the natural log (ln) of plasma concentration values (y) versus time (x).
# We examined the delivery of DPB to the vascular compartment by administrating directly DPB and compared it with the sodium salt of DPB. This study compared the pharmacokinetics of DPB after oral administration of DPB (150 mg/kg) and sodium salt of DPB (150 mg/kg) in rats. Fifty-four rats were administered DPB and sodium salt of DPB by a single oral gavage (n=54). Blood samples were obtained (approximately 0.5 mL each) were collected following each treatment from animal via the jugular vein. Blood samplings from groups of 3 rats/sex/time point were collected at various times after dosing, in order to provide the complete time-points of pre-dose, 0, 0.5, 1, 2, 3, 4, 6, 12, 18, 24, 36 and 48 hours after dosing. Each blood sample was collected into a tube containing lithium heparin and the samples were spun in a refrigerated centrifuge. The resultant plasma was stored at −80° C. prior to analysis. DPB was quantified in plasma using HPLC (LLOQ=0.25 μg/mL).
# (§3) We calculated AUC0-t for DPB at various times (24, 36 and 48 hours) after oral administrations of DPB and sodium salt of DPB.
# [2] = Pharmacokinetics of DPB after oral DPB or NaDPB and IV NaDPB in Beagle dogs; settings: for AUC(0-t): Beagle, 75 mg/kg
# Method: as §1, §2
# We examined the delivery of DPB to the vascular compartment by administrating directly DPB and compared it with the sodium salt of DPB in dogs. This study compared the pharmacokinetics of DPB after oral administration of a single dose of DPB (75 mg/kg) or sodium salt of DPB (75 mg/kg) in Beagle dogs. Twenty-eight Beagle dogs were administered DPB and sodium salt of DPB by a single oral gavage (n=24). Blood samples were obtained pre-dose and 0.5, 1, 2, 3, 4, 6, 12, 18, 24, 36 and 48 hours after dosing. DPB was quantified in plasma using HPLC (LLOQ=0.25 μg/mL).
# as §3
# [3] = Brain concentration of DPB after oral DPB or NaDPB and IV NaDPB in Sprague-Dawley rats; settings: rat, in vivo
# Method: In this study, we measured the brain concentration of DPB. Brains were collected as soon as possible after euthanasia from each rat. They were stored in a freezer at −80° C. prior to determination of DPB brain tissue concentrations. Table 6 summarizes the brain concentrations of DPB after oral administration of DPB and sodium salt of DPB in Sprague-Dawley rats.
# [4] = Sprague-Dawley rats, female, IV infusion 150 mg/kg, analyte DPB in plasma
# [5] = Sprague-Dawley rats, female, oral 150 mg/kg, analyte DPB in plasma
# [6] = Sprague-Dawley rats, male, IV infusion 150 mg/kg, analyte DPB in plasma
# [7] = Sprague-Dawley rats, male, oral 150 mg/kg, analyte DPB in plasma
# [8] = dog, in vivo, IV infusion 75 mg/kg, analyte DPB in plasma
# [9] = dog, in vivo, oral 75 mg/kg, analyte DPB in plasma
# [10] = oral 75 mg/kg, relative to oral DPB free acid
smiles,measurement,setting,value
"O=C1NC(=O)C(c2ccccc2)(c2ccccc2)C(=O)N1.[Na] [NaDPB, sodium 5,5-diphenyl barbiturate]","AUC0-t for DPB, increase versus oral DPB","[1]; Sprague-Dawley rats, female, oral 150 mg/kg, relative to oral DPB free acid",~2 fold
same,AUC(0-t),"[1]; female, iv, Sprague-Dawley rats, female, IV infusion 150 mg/kg, analyte DPB in plasma, read-out: AUC0-t",4330 µg·h/mL
same,AUC(0-t),"[1]; female, iv, female, IV infusion 150 mg/kg, analyte DPB, read-out: AUC0-36",4760 µg·h/mL
same,AUC(0-t),"[1]; female, po, Sprague-Dawley rats, female, oral 150 mg/kg, analyte DPB in plasma, read-out: AUC0-t",4040 µg·h/mL
same,AUC(0-t),"[1]; female, po, female, oral 150 mg/kg, analyte DPB, read-out: AUC0-36",3130 µg·h/mL
same,AUC(0-t),"[1]; female, po, female, oral 150 mg/kg, analyte DPB, read-out: AUC0-48",4040 µg·h/mL
same,AUC(0-t),"[1]; male, iv, Sprague-Dawley rats, male, IV infusion 150 mg/kg, analyte DPB in plasma, read-out: AUC0-t",4030 µg·h/mL
same,AUC(0-t),"[1]; male, iv, male, IV infusion 150 mg/kg, analyte DPB, read-out: AUC0-36",4610 µg·h/mL
same,AUC(0-t),"[1]; male, iv, male, IV infusion 150 mg/kg, analyte DPB, read-out: AUC0-48",5690 µg·h/mL
same,AUC(0-t),"[1]; male, po, Sprague-Dawley rats, male, oral 150 mg/kg, analyte DPB in plasma, read-out: AUC0-t",3410 µg·h/mL
same,AUC(0-t),"[1]; male, po, male, oral 150 mg/kg, analyte DPB, read-out: AUC0-36",2720 µg·h/mL
same,AUC(0-t),"[1]; male, po, male, oral 150 mg/kg, analyte DPB, read-out: AUC0-48",3410 µg·h/mL
same,Cmax,[1]; [4],174 µg/mL
same,Tmax,[1]; [4],2 h
same,half-life,[1]; [4],1610 min
same,Cmax,[1]; [5],104 µg/mL
same,Tmax,[1]; [5],12 h
same,half-life,[1]; [5],1970 min
same,bioavailability,"[1]; Sprague-Dawley rats, female, oral 150 mg/kg, analyte DPB",87.7%
same,Cmax,[1]; [6],184 µg/mL
same,Tmax,[1]; [6],1 h
same,half-life,[1]; [6],1450 min
same,Cmax,[1]; [7],86.9 µg/mL
same,Tmax,[1]; [7],18 h
same,half-life,[1]; [7],1060 min
same,bioavailability,"[1]; Sprague-Dawley rats, male, oral 150 mg/kg, analyte DPB",70.6%
same,AUC(0-t),"[2]; dog, in vivo, iv, IV infusion 75 mg/kg, analyte DPB in plasma, read-out: AUC0-t",1570 µg·h/mL
same,AUC(0-t),"[2]; dog, in vivo, iv, IV infusion 75 mg/kg, analyte DPB, read-out: AUC0-24",1410 µg·h/mL
same,AUC(0-t),"[2]; dog, in vivo, iv, IV infusion 75 mg/kg, analyte DPB, read-out: AUC0-36",1600 µg·h/mL
same,AUC(0-t),"[2]; dog, in vivo, iv, IV infusion 75 mg/kg, analyte DPB, read-out: AUC0-48",1620 µg·h/mL
same,AUC(0-t),"[2]; dog, in vivo, po, oral 75 mg/kg, analyte DPB in plasma, read-out: AUC0-t",883 µg·h/mL
same,AUC(0-t),"[2]; dog, in vivo, po, oral 75 mg/kg, analyte DPB, read-out: AUC0-24",883 µg·h/mL
same,AUC(0-t),"[2]; dog, in vivo, po, oral 75 mg/kg, analyte DPB, read-out: AUC0-36",962 µg·h/mL
same,AUC(0-t),"[2]; dog, in vivo, po, oral 75 mg/kg, analyte DPB, read-out: AUC0-48",962 µg·h/mL
same,Cmax,[2]; [8],95.7 µg/mL
same,Tmax,[2]; [8],0.5 h
same,half-life,[2]; [8],360 min
same,bioavailability,"[2]; dog, in vivo, oral 75 mg/kg vs IV 75 mg/kg, read-out: absolute bioavailability of DPB",~58%
same,Cmax,[2]; [9],54.2 µg/mL
same,Tmax,[2]; [9],7.8 h
same,half-life,[2]; [9],354 min
same,"AUC0-t for DPB, increase versus oral DPB",[2]; [10],~4 fold
same,"Cmax for DPB, increase versus oral DPB",[2]; [10],~3 fold
same,concentration at 18 h,"[3]; female, IV infusion 150 mg/kg",36100 ng/g
same,concentration at 24 h,"[3]; female, IV infusion 150 mg/kg",40700 ng/g
same,concentration at 36 h,"[3]; female, IV infusion 150 mg/kg",21900 ng/g
same,concentration at 24 h,"[3]; female, oral 150 mg/kg",25800 ng/g
same,concentration at 36 h,"[3]; female, oral 150 mg/kg",28400 ng/g
same,concentration at 48 h,"[3]; female, oral 150 mg/kg",14900 ng/g
same,concentration at 18 h,"[3]; male, IV infusion 150 mg/kg",41200 ng/g
same,concentration at 24 h,"[3]; male, IV infusion 150 mg/kg",35600 ng/g
same,concentration at 36 h,"[3]; male, IV infusion 150 mg/kg",27500 ng/g
same,concentration at 24 h,"[3]; male, oral 150 mg/kg",29900 ng/g
same,concentration at 36 h,"[3]; male, oral 150 mg/kg",23600 ng/g
same,concentration at 48 h,"[3]; male, oral 150 mg/kg",9460 ng/g
